Measurements reported in patent publication US4328215A, “Method of reducing or avoiding the mutagenic activity of drugs” (The Johns Hopkins University, priority 1977, dated 1982).
Like-named read-outs stand apart in the source and are kept apart here. Where a SMILES comes first, the peptide text is derived from it. Bridges are numbered along the chain shown (N, C = ends). [ ]: non-standard residue; d: D form. The star is where a group is joined. Ileψ(thiazoline)Cys = CC[C@H](C)[C@H](N)C1=N[C@H](C(=O)*)CS1; dOrn = NCCC[C@@H](N)C(=O)O

What was measured:
intestinal bacteria = assay: Effect on intestinal bacterial flora of mice; format: in vivo
Protocol: […] Homogenates of these organs were made with 10 ml nutrient broth (Difco) and serial dilutions were plated on nutrient agar plates. Obligatory anaerobic bacteria were counted in the same manner except that the organs were homogenized in thioglycolate (Difco) medium and the agar plates were incubated in anaerobic jars. The plates were counted after incubation for 24 hours at 37° C. There were no significant differences in counts when the incubation time was extended for 48 hours. Six mice were used for each time interval.

[1] = monkeys; oxamniquine alone; cited from earlier work
[2] = Mutagenic metabolite of oxamniquine in urine of mice; format: in vivo; conditions: mixture of erythromycin, bacitracin and succinyl sulfathiazole
Excerpt: Ir also is used, though to a lesser extent, in Africa and the Mid-east for the treatment of schistosomiasis mansoni.

[3] = mice; oxamniquine alone; cited from earlier work
[4] = ampicillin administered; cited from earlier work

## O=C(O)CCC(=O)Nc1ccc(S(=O)(=O)Nc2nccs2)cc1 [Succinylsulfathiazole]
Intestinal bacteria; 1 g/kg once daily for 3 successive days, oral
  Bacterial flora of the host's intestines: reduces the bacterial flora
S. typhimurium TA 100; in vivo
  Host-mediated assay, revertants per 10^8 bacteria, controls (no CGP 4540): 62(±5) revertants per 10^8 bacteria

## CC(C)NCC1CCc2cc(CO)c([N+](=O)[O-])cc2N1 (stereo not shown) [oxamniquine]
[1]
  Mutagenic metabolite in urine: gives rise to the appearance of a mutagenic metabolite in the urine
[2]
  Appearance of the mutagenic metabolite with coadministered antibacterial agents: completely eliminates the appearance of the mutagenic metabolite
[3]
  Mutagenic metabolite in urine: gives rise to the appearance of a mutagenic metabolite in the urine

## C[N+]([O-])=NCO[C@@H]1O[C@H](CO)[C@@H](O)[C@H](O)[C@H]1O [cycasin]
[4]
  Formation of the aglycone after administration of ampicillin: prevented

## CC[C@H](C)[C@H](N)C1=N[C@H](C(=O)N[C@@H](CC(C)C)C(=O)N[C@H](CCC(=O)O)C(=O)N[C@H](C(=O)N[C@H]2CCCCNC(=O)[C@H](CC(N)=O)NC(=O)[C@@H](CC(=O)O)NC(=O)[C@H](Cc3cnc[nH]3)NC(=O)[C@@H](Cc3ccccc3)NC(=O)[C@H]([C@@H](C)CC)NC(=O)[C@@H](CCCN)NC2=O)[C@@H](C)CC)CS1 [Bacitracin] ({Ileψ(thiazoline)Cys}-L[dE]IK[dOrn]I[dF]H[dD]N; lactam 4-C)
S. typhimurium TA 100; bacitracin alone, 220 mg/kg, mice
  Host-mediated assay, revertants per 10^8 bacteria, controls (no CGP 4540): 64(±9) revertants per 10^8 bacteria
S. typhimurium TA 100; bacitracin alone, 440 mg/kg, mice
  Host-mediated assay, revertants per 10^8 bacteria, controls (no CGP 4540): 71(±5) revertants per 10^8 bacteria

## CC[C@H]1OC(=O)[C@H](C)[C@@H](O[C@H]2C[C@@](C)(OC)[C@@H](O)[C@H](C)O2)[C@H](C)[C@@H](O[C@@H]2O[C@H](C)C[C@H](N(C)C)[C@H]2O)[C@](C)(O)C[C@@H](C)C(=O)[C@H](C)[C@@H](O)[C@]1(C)O [Erythromycin]
Intestinal bacteria; erythromycin base 100 mg/kg single oral dose, large intestine, aerobes
  Number of aerobes in the large intestine: little, if any, change
Intestinal bacteria; erythromycin base 100 mg/kg single oral dose, large intestine, anaerobes
  Number of anaerobes in the large intestine: little, if any, change
Intestinal bacteria; erythromycin base 100 mg/kg single oral dose, small intestine, aerobes
  Total number of aerobic bacteria in the small intestine: only a moderate reduction, of relatively short duration
Intestinal bacteria; erythromycin base 100 mg/kg single oral dose, small intestine, anaerobes
  Anaerobic bacteria in the small intestine: reduced to an even lesser extent than were aerobes
S. typhimurium TA 100; antibiotic alone, 100 mg/kg oral, mice
  Host mediated assay, revertants per 10^8 bacteria, controls (no CGP 4540): 65 (±4) revertants per 10^8 bacteria
